The values that follow are results of earlier work, collected in patent publication US9532987B2, “Use of a combination of a MEK inhibitor and an ERK inhibitor for treatment of hyperproliferative diseases” (Genentech, Inc., priority 2013, dated 2017).

Structures are written as SMILES.

The test system of data set [1] is tumor cells bearing activating Ras mutations.
In data set [2] the test system is tumor cells bearing activating B-RAF mutations.

As to `O=C(c1ccc(F)c(F)c1Nc1ccc(I)cc1F)N1CC(O)([C@@H]2CCCCN2)C1` [GDC-0973, [3,4-difluoro-2-[(2-fluoro-4-iodophenyl)amino]phenyl][3-hydroxy-3-[(2S)-2-piperidinyl]-1-azetidinyl]methanone], the “inhibition of tumor cell growth” value in data set [1] was “effective”; in data set [2] it was “more activity”.

Take `O=C(NOCCO)c1ccc2cncn2c1Nc1ccc(I)cc1F` [GDC-0623, 5-[(2-fluoro-4-iodophenyl)amino]-N-(2-hydroxyethoxy)-imidazo[1,5-a]pyridine-6-carboxamide]: the figures for the “inhibition of tumor cell growth” value in data set [1] and in data set [2] were “more activity” and “effective”, respectively.
